Results on seven compounds are retold here after patent US20260355196A1, “INHIBITORS AND DEGRADERS OF PIP4K PROTEIN” (Larkspur Biosciences, Inc., priority 2023, published 2026).

SMILES strings stand for the structures. Like-named read-outs stand apart in the source and are kept apart here.

The target of this test is T1, PIP4K2C (Homo sapiens, UniProt Q8TBX8).
T1 sequence (Q8TBX8 1-421): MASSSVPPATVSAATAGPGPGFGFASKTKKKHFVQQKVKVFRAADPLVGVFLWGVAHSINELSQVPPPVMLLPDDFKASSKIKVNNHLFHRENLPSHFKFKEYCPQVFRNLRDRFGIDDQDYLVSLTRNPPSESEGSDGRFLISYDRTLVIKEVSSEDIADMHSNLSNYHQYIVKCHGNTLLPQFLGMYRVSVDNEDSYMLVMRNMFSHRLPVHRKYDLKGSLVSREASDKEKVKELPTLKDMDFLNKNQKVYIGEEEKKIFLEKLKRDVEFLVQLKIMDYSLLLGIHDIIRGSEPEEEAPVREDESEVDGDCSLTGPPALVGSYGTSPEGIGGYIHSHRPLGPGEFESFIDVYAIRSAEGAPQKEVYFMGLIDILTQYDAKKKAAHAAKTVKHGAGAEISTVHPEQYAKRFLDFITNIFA
The experiment in a line: HiBiT PIP4K2C degradation assay in MOLT-4 cells (endogenous PIP4K2C C-terminally tagged with HiBiT). The class given is cell-based. Also noted: untagged in primary human PBMCs and monocyte-derived dendritic cells. The conditions noted are these: MOLT-4, top concentration 10 micromolar. In short, it runs like this:
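Endogenous PIP4K2C was C-terminally HiBiT-tagged by CRISPR-Cas9 in MOLT-4 cells, which were treated with a 10-point, 3-fold dilution series from 10 micromolar in duplicate for 24 or 6 hours at 37 C. Remaining protein was read by HiBiT lytic luminescence, and DC50 came from a Hill fit.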

Setting [1] is: 24 hours incubation, read-out: HiBIT-degradation MOLT4 PIP4k2C 24 hours DC50.

As for `O=C1CCC(n2c(=O)oc3cc(N4CCN(CC5CCN(CC(=O)N6CCC(Nc7ncc(F)c(-c8cccc(-n9ccccc9=O)c8)n7)CC6)CC5)CC4)ccc32)C(=O)N1` (stereo not shown) [Compound 340, 3-(6-(4-((1-(2-(4-((5-fluoro-4-(3-(2-oxopyridin-1(2H)-yl)phenyl)pyrimidin-2-yl)amino)piperidin-1-yl)-2-oxoethyl)piperidin-4-yl)methyl)piperazin-1-yl)-2-oxobenzo[d]oxazol-3 (2H)-yl)piperidine-2,6-dione], the DC50 under setting [1] is < 500 nM. Still for that read-out and setting: to `O=C1CCC(Nc2ccc(N3CCN(CC4CCN(CC(=O)N5CCC(Nc6ncc(F)c(-c7cccc(-n8ccccc8=O)c7)n6)CC5)CC4)CC3)c(F)c2)C(=O)N1` (stereo not shown) [Compound 341, 3-((3-fluoro-4-(4-((1-(2-(4-((5-fluoro-4-(3-(2-oxopyridin-1(2H)-yl)phenyl)pyrimidin-2-yl)amino)piperidin-1-yl)-2-oxoethyl)piperidin-4-yl)methyl)piperazin-1-yl)phenyl)amino)piperidine-2,6-dione] belongs < 500 nM; to `O=C1CCC(Nc2ccc(C3CCN(C4CCN(CCC(=O)N5CCC(Nc6ncc(F)c(-c7cccc(-n8ccccc8=O)c7)n6)CC5)CC4)CC3)c(F)c2)C(=O)N1` (stereo not shown) [Compound 343, 3-((3-fluoro-4-(1′-(3-(4-((5-fluoro-4-(3-(2-oxopyridin-1(2H)-yl)phenyl)pyrimidin-2-yl)amino)piperidin-1-yl)-3-oxopropyl)-[1,4′-bipiperidin]-4-yl)phenyl)amino)piperidine-2,6-dione], < 500 nM. For `Cn1c(=O)n(C2CCC(=O)NC2=O)c2ccc(N3CCC(N4CCC(C(=O)N[C@H]5CC[C@H](Nc6ncc(F)c(-c7cccc(-n8ccccc8=O)c7)n6)CC5)CC4)CC3)cc21` (stereo partly drawn) [Compound 344, trans-1′-(1-(2,6-dioxopiperidin-3-yl)-3-methyl-2-oxo-2,3-dihydro-1H-benzo[d]imidazol-5-yl)-N-(4-((5-fluoro-4-(3-(2-oxopyridin-1(2H)-yl)phenyl)pyrimidin-2-yl)amino)cyclohexyl)-[1,4′-bipiperidine]-4-carboxamide], the DC50 (read-out: HiBIT-degradation MOLT4 PIP4k2C 24 hours DC50, 24 hours incubation) was < 500 nM. Take `O=C1CCC(Nc2ccc(C3CCN([C@H]4CC[C@H](C(=O)N[C@H]5CC[C@H](Nc6ncc(F)c(-c7cccc(-n8ccccc8=O)c7)n6)CC5)CC4)CC3)c(F)c2)C(=O)N1` (stereo partly drawn) [Compound 345, trans-4-(4-(4-((2,6-dioxopiperidin-3-yl)amino)-2-fluorophenyl)piperidin-1-yl)-N-(trans-4-((5-fluoro-4-(3-(2-oxopyridin-1(2H)-yl)phenyl)pyrimidin-2-yl)amino)cyclohexyl)cyclohexane-1-carboxamide]: the DC50 (read-out: HiBIT-degradation MOLT4 PIP4k2C DC50 (6 hours, marked *), 6 hours of incubation time, rather than 24 hours) is < 500 nM. For the compound `Cn1nc(N2CCC(=O)NC2=O)c2ccc(C3CCN(CC(=O)N4CCC(O)(C(=O)N5CCC(Nc6ncc(F)c(-c7cccc(-n8ccccc8=O)c7)n6)CC5)CC4)CC3)cc21` [Compound 346, 1-(6-(1-(2-(4-(4-((5-fluoro-4-(3-(2-oxopyridin-1(2H)-yl)phenyl)pyrimidin-2-yl)amino)piperidine-1-carbonyl)-4-hydroxypiperidin-1-yl)-2-oxoethyl)piperidin-4-yl)-1-methyl-1H-indazol-3-yl)dihydropyrimidine-2,4(1H,3H)-dione], the DC50 under setting [1] is > 5000 nM. With `O=C1CCC(n2c(=O)oc3cc(C4CCN(CCC5CCN(C(=O)[C@@H]6CCC[C@H](Nc7ncc(F)c(-c8cccc(-n9ccccc9=O)c8)n7)C6)CC5)CC4)ccc32)C(=O)N1` (stereo partly drawn) [Compound 350, 3-(6-(1-(2-(1-((1R,3S)-3-((5-fluoro-4-(3-(2-oxopyridin-1(2H)-yl)phenyl)pyrimidin-2-yl)amino)cyclohexane-1-carbonyl)piperidin-4-yl)ethyl)piperidin-4-yl)-2-oxobenzo[d]oxazol-3 (2H)-yl)piperidine-2,6-dione], the DC50 (6 hours of incubation time, rather than 24 hours, read-out: HiBIT-degradation MOLT4 PIP4k2C DC50 (6 hours, marked *)) was < 500 nM.

As usually defined, the DC50 is the concentration at which degradation of the target reaches its halfway point.
